Test system: moderate-to-severe chronic spontaneous urticaria (CSU)
Assay: Phase 2 CSU study: hives severity score over 7 days (HSS7)
Format: in vivo, human
Set-up: key to HSS7 Change from baseline, Median / HSS7, Median / HSS7, Max / HSS7 Change from baseline, Q1 / HSS7 Change from baseline, Q3 / HSS7 Change from baseline, Max: 7-day sum of daily hive scores, each 0 = none to 3 = >50 hives
Conditions: 400 mg BID
Excerpt: The study comprises a 12 week, randomized, double-blind, placebo-controlled, multi-center, dose-ranging efficacy and safety phase, followed by a 40 week open label extension (OLE) phase (see FIG. 1).
The study consists of three phases and an optional OLE phase.
The UAS is a validated PRO measure. The daily UAS is the sum of the daily Hive Severity Score (HSS, ranging from 0=None to 3=more than 50 hives) and the daily Itch Severity Score (ISS, ranging from 0=None to 3=intense), the 2 key urticaria signs and symptoms which are wheals and itch. The daily UAS scores range from 0 to 6 point/day. Daily UAS scores are summed over 7-day period to create the UAS7, ranging from 0 to 42, and are composed of the HSS7 and ISS7 components. […] Patients were to complete the UAS using the e-diary. The e-diary was to be used once daily on the same time of each day recording of participant's answers to the urticaria activity score over 7 days (UAS7) questionnaire. For participants who entered the OLE phase, their answers to the UAS7 questionnaire were also to be collected from Week 20 to Week24 and from Week 48 to Week 52.
The following secondary endpoints were to be analyzed using the same approach as for the primary endpoint: • Change from baseline in UAS7 at Week 4 • Change from baseline in UAS7 at Week 12 (for US and US reference countries) • Change from baseline in ISS7 at Week 12 (except US and US reference countries) • Change from baseline in HSS7 at Week 12

[1] = Omalizumab-Naïve Population, last block under Week 12, double-blind period, WOCF imputation
[2] = Week 1, Omalizumab-Naïve Population
[3] = Week 2, Omalizumab-Naïve Population
[4] = Week 3, Omalizumab-Naïve Population
[5] = Week 4, Omalizumab-Naïve Population
[6] = Week 5, Omalizumab-Naïve Population
[7] = Week 6, Omalizumab-Naïve Population
[8] = Week 7, Omalizumab-Naïve Population
[9] = Week 8, Omalizumab-Naïve Population

## CC(C)(C=C(C#N)C(=O)N1CCC[C@@H](n2nc(-c3ccc(Oc4ccccc4)cc3F)c3c(N)ncnc32)C1)N1CCN(C2COC2)CC1 [rilzabrutinib, (R)-2-[3-[4-amino-3-(2-fluoro-4-phenoxy-phenyl)pyrazolo[3,4-d]pyrimidin-1-yl]piperidine-1-carbonyl]-4-methyl-4-[4-(oxetan-3-yl)piperazin-1-yl]pent-2-enenitrile]
[1]
  HSS7, Max: 21.0
  HSS7, Min: 0.0
  HSS7 Change from baseline, Max: 0.0
  HSS7 Change from baseline, Mean (SD): −7.80 (6.87)
  HSS7 Change from baseline, Median: −5.00
  HSS7 Change from baseline, Min: −16.0
  HSS7 Change from baseline, Q1: −14.00
  HSS7 Change from baseline, Q3: −4.00
  HSS7 Percent change from baseline, Max: 0.0%
  HSS7 Percent change from baseline, Mean (SD): −53.67 (44.85) percent
  HSS7 Percent change from baseline, Median: −41.67%
  HSS7 Percent change from baseline, Min: −100.0%
  HSS7 Percent change from baseline, Q1: −100.00%
  HSS7 Percent change from baseline, Q3: −26.67%
Week 1, ITT Population
  HSS7 % Change difference for rilzabrutinib vs.placebo LS Mean (95% CI): −25.04 %
  HSS7 % Change from baseline LS Mean (SE): −33.74 (5.55) %
  HSS7 Change difference for rilzabrutinib vs.placebo LS Mean (95% CI): −2.95 (−5.36, −0.55)
  HSS7 Change from baseline LS Mean (SE): −4.79 (0.75)
  HSS7 Postbaseline Mean (SD): 9.32 (5.77)
[2]
  HSS7 % Change difference for rilzabrutinib vs.placebo LS Mean (95% CI): −27.07 %
  HSS7 % Change from baseline LS Mean (SE): −34.51 (5.97) %
  HSS7 Change difference for rilzabrutinib vs.placebo LS Mean (95% CI): −3.10 (−5.66, −0.53)
  HSS7 Change from baseline LS Mean (SE): −4.73 (0.80)
  HSS7 Postbaseline Mean (SD): 9.26 (5.76)
Week 1, Omalizumab-Naïve Population with Outlier Removed from Analysis
  HSS7 Postbaseline Mean (SD): 9.26 (5.76)
Week 2, ITT Population
  HSS7 % Change difference for rilzabrutinib vs.placebo LS Mean (95% CI): −18.39 %
  HSS7 % Change from baseline LS Mean (SE): −34.94 (5.70) %
  HSS7 Change difference for rilzabrutinib vs.placebo LS Mean (95% CI): −2.23 (−4.31, −0.14)
  HSS7 Change from baseline LS Mean (SE): −5.15 (0.79)
  HSS7 Postbaseline Mean (SD): 9.11 (5.66)
[3]
  HSS7 % Change difference for rilzabrutinib vs.placebo LS Mean (95% CI): −19.53 %
  HSS7 % Change from baseline LS Mean (SE): −34.80 (6.07) %
  HSS7 Postbaseline Mean (SD): 9.27 (5.49)
Week 2, Omalizumab-Naïve Population with Outlier Removed from Analysis
  HSS7 Postbaseline Mean (SD): 9.27 (5.49)
Week 3, ITT Population
  HSS7 % Change difference for rilzabrutinib vs.placebo LS Mean (95% CI): −19.09 %
  HSS7 % Change from baseline LS Mean (SE): −38.24 (5.88) %
  HSS7 Change difference for rilzabrutinib vs.placebo LS Mean (95% CI): −2.14 (−4.31, 0.04)
  HSS7 Change from baseline LS Mean (SE): −5.64 (0.82)
  HSS7 Postbaseline Mean (SD): 8.42 (6.15)
[4]
  HSS7 % Change difference for rilzabrutinib vs.placebo LS Mean (95% CI): −20.68 %
  HSS7 % Change from baseline LS Mean (SE): −38.38 (6.33) %
  HSS7 Postbaseline Mean (SD): 8.55 (6.09)
Week 3, Omalizumab-Naïve Population with Outlier Removed from Analysis
  HSS7 Postbaseline Mean (SD): 8.55 (6.09)
Week 4, ITT population
  HSS7 % Change difference for rilzabrutinib vs.placebo LS Mean (95% CI): −24.40 %
  HSS7 % Change from baseline LS Mean (SE): −43.10 (6.02) %
  HSS7 Change difference for rilzabrutinib vs.placebo LS Mean (95% CI): −2.71 (−4.92, −0.50)
  HSS7 Change from baseline LS Mean (SE): −6.16 (0.83)
  HSS7 Postbaseline Mean (SD): 7.50 (6.18)
[5]
  HSS7 % Change difference for rilzabrutinib vs.placebo LS Mean (95% CI): −27.23 %
  HSS7 % Change from baseline LS Mean (SE): −43.11 (6.45) %
  HSS7 Postbaseline Mean (SD): 7.60 (6.00)
Week 4, Omalizumab-Naïve Population with Outlier Removed from Analysis
  HSS7 Postbaseline Mean (SD): 7.60 (6.00)
Week 5, ITT Population
  HSS7 % Change difference for rilzabrutinib vs.placebo LS Mean (95% CI): −12.25 %
  HSS7 % Change from baseline LS Mean (SE): −41.40 (5.88) %
  HSS7 Change difference for rilzabrutinib vs.placebo LS Mean (95% CI): −1.29 (−3.57, 0.99)
  HSS7 Change from baseline LS Mean (SE): −5.93 (0.86)
  HSS7 Postbaseline Mean (SD): 7.91 (6.94)
[6]
  HSS7 % Change difference for rilzabrutinib vs.placebo LS Mean (95% CI): −9.42 (−26.13, 7.29) %
  HSS7 % Change from baseline LS Mean (SE): −39.98 (6.23) %
  HSS7 Postbaseline Mean (SD): 8.34 (6.75)
Week 5, Omalizumab-Naïve Population with Outlier Removed from Analysis
  HSS7 Postbaseline Mean (SD): 8.34 (6.75)
Week 6, ITT Population
  HSS7 % Change difference for rilzabrutinib vs.placebo LS Mean (95% CI): −15.72 %
  HSS7 % Change from baseline LS Mean (SE): −39.79 (6.64) %
  HSS7 Change difference for rilzabrutinib vs.placebo LS Mean (95% CI): −1.64 (−4.07, 0.79)
  HSS7 Change from baseline LS Mean (SE): −5.90 (0.92)
  HSS7 Postbaseline Mean (SD): 7.89 (6.65)
[7]
  HSS7 % Change difference for rilzabrutinib vs.placebo LS Mean (95% CI): −15.99 %
  HSS7 % Change from baseline LS Mean (SE): −40.02 (7.13) %
  HSS7 Postbaseline Mean (SD): 8.17 (6.62)
Week 6, Omalizumab-Naïve Population with Outlier Removed from Analysis
  HSS7 Postbaseline Mean (SD): 8.17 (6.62)
Week 7, ITT Population
  HSS7 % Change difference for rilzabrutinib vs.placebo LS Mean (95% CI): −22.31 %
  HSS7 % Change from baseline LS Mean (SE): −46.27 (6.01) %
  HSS7 Change difference for rilzabrutinib vs.placebo LS Mean (95% CI): −2.71 (−4.98, −0.44)
  HSS7 Change from baseline LS Mean (SE): −6.79 (0.86)
  HSS7 Postbaseline Mean (SD): 7.01 (6.25)
[8]
  HSS7 % Change difference for rilzabrutinib vs.placebo LS Mean (95% CI): −19.88 %
  HSS7 % Change from baseline LS Mean (SE): −45.57 (6.48) %
  HSS7 Postbaseline Mean (SD): 7.34 (6.12)
Week 7, Omalizumab-Naïve Population with Outlier Removed from Analysis
  HSS7 Postbaseline Mean (SD): 7.34 (6.12)
Week 8, ITT population
  HSS7 % Change difference for rilzabrutinib vs.placebo LS Mean (95% CI): −23.44 %
  HSS7 % Change from baseline LS Mean (SE): −52.52 (6.33) %
  HSS7 Change difference for rilzabrutinib vs.placebo LS Mean (95% CI): −2.74 (−5.15, −0.33)
  HSS7 Change from baseline LS Mean (SE): −7.49 (0.91)
  HSS7 Postbaseline Mean (SD): 6.41 (6.73)
[9]
  HSS7 % Change difference for rilzabrutinib vs.placebo LS Mean (95% CI): −25.21 %
  HSS7 % Change from baseline LS Mean (SE): −53.21 (6.86) %
  HSS7 Postbaseline Mean (SD): 6.66 (6.70)
Week 8, Omalizumab-Naïve Population with Outlier Removed from Analysis
  HSS7 Postbaseline Mean (SD): 6.66 (6.70)
Week 9, ITT Population
  HSS7 % Change difference for rilzabrutinib vs.placebo LS Mean (95% CI): −27.61 %
  HSS7 % Change from baseline LS Mean (SE): −51.53 (6.66) %
  HSS7 Change difference for rilzabrutinib vs.placebo LS Mean (95% CI): −3.04 (−5.57, −0.51)
  HSS7 Change from baseline LS Mean (SE): −7.16 (0.96)
  HSS7 Postbaseline Mean (SD): 6.69 (7.49)
Week 9, Omalizumab-Naïve Population
  HSS7 Postbaseline Mean (SD): 7.01 (7.58)
Week 9, Omalizumab-Naïve Population with Outlier Removed from Analysis
  HSS7 Postbaseline Mean (SD): 7.01 (7.58)
Week 10, ITT Population
  HSS7 % Change difference for rilzabrutinib vs.placebo LS Mean (95% CI): −24.54 %
  HSS7 % Change from baseline LS Mean (SE): −52.53 (6.82) %
  HSS7 Change difference for rilzabrutinib vs.placebo LS Mean (95% CI): −2.72 (−5.32, −0.11)
  HSS7 Change from baseline LS Mean (SE): −7.32 (0.99)
  HSS7 Postbaseline Mean (SD): 6.77 (7.18)
Week 10, Omalizumab-Naïve Population
  HSS7 Postbaseline Mean (SD): 7.05 (7.27)
Week 10, Omalizumab-Naïve Population with Outlier Removed from Analysis
  HSS7 Postbaseline Mean (SD): 7.05 (7.27)
Week 11, ITT Population
  HSS7 % Change difference for rilzabrutinib vs.placebo LS Mean (95% CI): −22.60 %

Source: US20260256792A1, “TREATMENT OF CHRONIC SPONTANEOUS URTICARIA BY ADMINISTERING (R)-2-[3-[4-AMINO-3-(2-FLUORO-4-PHENOXY-PHENYL)PYRAZOLO[3,4-D]PYRIMIDIN-1-YL]PIPERIDINE-1-CARBONYL]-4-METHYL-4-[4-(OXETAN-3-YL)PIPERAZIN-1-YL]PENT-2-ENENITRILE” (priority 2023, published 2026)
